This note sets out measurements from BindingDB's records for doi:10.1016/0960-894X(96)00356-3 (1996).

Structures are written as SMILES.

The target of the experiment is Tissue alpha-L-fucosidase (Bos taurus). Description: Compound was tested for the inhibitory activity against alpha-L-fucosidase from bovine epididymis.
On to `CC1SC(Sc2ccc([N+](=O)[O-])cc2)C(O)[C@H](O)C1O` (stereo partly drawn) [(R)-2-Methyl-6-(4-nitro-phenylsulfanyl)-tetrahydro-thiopyran-3,4,5-triol], for which the affinity corresponds to a Ki of 3.3 µM. The result for `CC1SC(OP(=O)(O)OCc2ccccc2)C(O)C(O)C1O` (stereo unspecified) [Sodium; benzyl 3,4,5-trihydroxy-6-methyltetrahydro-2H-thiopyran-2-yl hydrogen phosphate] reads 33 µM; that for `COC1SC(C)C(O)C(O)C1O` [(3S,4S,5R)-2-Methoxy-6-methyl-tetrahydro-thiopyran-3,4,5-triol], 690 µM; that for `CSC1SC(C)C(O)C(O)C1O` [(3R,4S,5S)-2-Methyl-6-methylsulfanyl-tetrahydro-thiopyran-3,4,5-triol], 2300 µM.

For the compound `CC1SC(Oc2ccc([N+](=O)[O-])cc2)C(O)C(O)C1O` [(3R,4S,5S)-2-Methyl-6-(4-nitro-phenoxy)-tetrahydro-thiopyran-3,4,5-triol], affinity was put at a Ki of 118 µM. The result for `CC1SC(OP(=O)(O)O)C(O)C(O)C1O` [Sodium; Phosphoric acid mono-((3S,4S,5R)-3,4,5-trihydroxy-6-methyl-tetrahydro-thiopyran-2-yl) ester] reads 406 µM.
